Consider two compounds from patent publication US20110301142A1, “ANTAGONISTS OF LYSOPHOSPHATIDIC ACID RECEPTORS” (priority 2008, published 2011).

The subject of one assay is Female CD-1 mice. Put plainly: Bleomycin-induced lung fibrosis model in mice. The class given is in vivo. The text has this:
Female CD-1 mice (Harlan, 25-30 g) are housed 4 per cage, given free access to food and water and allowed to acclimate for at least 7 days prior to test initiation. After the habituation phase, mice are lightly anesthetized with isoflurane (5% in 100% O2) and administered with bleomycin sulfate (0.01-5 U/kg, Henry Schein) via intratracheal instillation (Cuzzocrea S et al. Am J Physiol Lung Cell Mol. Physiol. 2007 May; 292(5):L1095-104. Epub 2007 Jan. 12.). Mice are returned to their cages and monitored daily for the duration of the experiment. Test compound or vehicle is delivered po, ip or sc daily. The route and frequency of dosing is based on previously determined pharmacokinetic properties. All animals are sacrificed using inhaled isoflurane 3, 7, 14, 21 or 28 days after bleomycin instillation. Following sacrifice, mice are intubated with a 20 gauge angiocatheter attached to a 1 ml syringe. Lungs are lavaged with saline to obtain bronchoalveolar lavage fluid (BALF) and then removed and fixed in 10% neutral buffered formalin for subsequent histopathological analysis. BALF is centrifuged for 10 min at 800×g to pellet the cells and the cell supernatant removed and frozen at −80° C. for subsequent protein analysis using the DC protein assay kit (Biorad, Hercules, Calif.) and soluble collagen analysis using Sircol (Biocolor Ltd, UK). BALF is analyzed for concentrations of inflammatory, pro-fibrotic and tissue injury biomarkers including transforming growth factor β1, hyaluronic acid, tissue inhibitor of metalloproteinase-1, matrix matelloproteinase-7, connective tissue growth factor and lactate dehydrogenase activity, using commercially available ELISA. The cell pellet is re-suspended in PBS. Total cell counts are then obtained using a Hemavet hematology system (Drew Scientific, Wayne, Pa.) and differential cells counts are determined using Shandon cytospin (Thermo Scientific, Waltham, Mass.). Lung tissue is stained using hematoxylin and eosin (H&E) and trichrome and lung fibrosis.is determined by semiquantitative histopathological scoring (Ashcroft T. et al. J. Clin. Path. 1988; 41; 4, 467-470.) using light microscopy (10× magnification) and quantitative, computer-assisted densitometry of collagen in lung tissue sections using light microscopy. The data are plotted using Graphpad prism and statistical differences between groups determined.

In another assay the test system is Female C57BL/6 mice. Put plainly: Mouse carbon tetrachloride (CCl4)-induced liver fibrosis model. The class given is in vivo. Conditions: for collagen deposition in the liver as compared to the untreated group: CCl4-induced liver fibrosis. As for the experimental part: Female C57BL/6 mice (Harlan, 20-25 g) housed 4/cage are given free access to food and water and allowed to acclimate for at least 7 days prior to test initiation. After the habituation phase, mice receive CCl4 (0.5-1.0 ml/kg body weight) diluted in corn oil vehicle (100 μL volume) via i.p. injection twice a week for 4-6 weeks. (Higazi, A. A. et al., Clin Exp Immunol. 2008 April; 152(1):163-73. Epub 2008 Feb. 14.). Control mice receive an equivalent volume of corn oil vehicle only. Test compound or vehicle is delivered po, ip or sc daily. At the end of the study (4-6 weeks after first i.p. injection of CCl4), mice are sacrificed using inhaled isoflurane and blood is drawn via cardiac puncture for subsequent analysis of ALT/AST levels. The liver is harvested, and one half of the liver is frozen at −80° C. and the other half is fixed in 10% neutral buffered formalin for histological assessment of liver fibrosis using light microscopy (10× magnification). Liver tissue homogenates are analyzed for collagen levels using Sircol (Biocolor Ltd, UK). Fixed Liver tissue is stained using hematoxylin and eosin (H&E) and trichrome and liver fibrosis is determined by quantitative, computer-assisted densitometry of collagen in liver tissue sections using light microscopy. Plasma and liver tissue lysates are also analyzed for concentrations of inflammatory, pro-fibrotic and tissue injury biomarkers including transforming growth factor β1, hyaluronic acid, tissue inhibitor of metalloproteinase-1, matrix matelloproteinase-7, connective tissue growth factor and lactate dehydrogenase activity, using commercially available ELISA. The resulting data are plotted using Graphpad prism and statistical differences between groups determined.

In a further assay the target is T1, human LPA1 (Homo sapiens, UniProt Q92633).
T1 construct: the full-length cDNA for human LPA1 was obtained by PCR of the reverse transcription reaction; expressed in transfected cells
T1 sequence (Q92633 whole entry): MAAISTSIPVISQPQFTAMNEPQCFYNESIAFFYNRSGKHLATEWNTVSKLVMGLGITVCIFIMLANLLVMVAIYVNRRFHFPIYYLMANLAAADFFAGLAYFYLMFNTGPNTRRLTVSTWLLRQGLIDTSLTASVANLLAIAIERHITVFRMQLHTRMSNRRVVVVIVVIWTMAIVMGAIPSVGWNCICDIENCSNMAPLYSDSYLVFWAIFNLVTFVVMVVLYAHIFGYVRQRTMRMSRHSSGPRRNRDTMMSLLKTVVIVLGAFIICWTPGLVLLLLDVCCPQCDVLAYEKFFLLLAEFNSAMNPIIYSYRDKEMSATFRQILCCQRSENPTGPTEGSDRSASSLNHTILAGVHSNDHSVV
The experiment in a line: LPA1 calcium flux assay (HLPA1 Ca Flux). The class given is cell-based. To be noted: Human LPA1 expressing CHO cells, stimulated with 10 nM LPA. The method in brief:
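Compounds were fitted for IC50 from inhibition of the intracellular calcium rise evoked by 10 nM LPA. Test system: dye-loaded CHO cells stably transfected with human LPA1, serum-free overnight, with 30 min compound pretreatment at room temperature before stimulation.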

Where [1] appears, read: chronic setting (14 and 28 day), single bleomycin (1.5 units/kg) instillation.
Setting [2] is: chronic setting, repeated bleomycin (3.0-5.0 units/kg/week) instillations.
The mark [3] stands for this setting: chronic setting (14-days only), single bleomycin instillation (3.0 units).

`Cc1noc(-c2ccc(-c3ccc(CC(=O)O)cc3)cc2)c1NC(=O)O[C@H](C)c1ccccc1Cl` [Compound 1-88, (4′-{4-[(R)-1-(2-Chloro-phenyl)-ethoxycarbonylamino]-3-methyl-isoxazol-5-yl}-biphenyl-4-yl)-acetic acid]: the “efficacy at reducing lung tissue damage and fibrosis compared to pirfenidone” value in the assay on Female CD-1 mice (14 day mouse bleomycin model) was “superior efficacy to pirfenidone”. Also, in the assay with Female CD-1 mice (acute setting (3 day)), the “MMP7 concentration in BALF” value is “significantly reduced”, the “TGFβ1 concentration in BALF” value is reported as “significantly reduced”, the “hyaluronan concentration in BALF” value is recorded as “significantly reduced” and the “lactate dehydrogenase activity (LDH; tissue injury marker) in BALF” value is given as “significantly reduced”. In the assay with Female CD-1 mice (acute setting (3 day)), the “tissue inhibitor of metalloproteinase-1 (TIMP-1; pro-fibrotic marker) concentration in BALF” value is “significantly reduced” and the “total protein in broncheoalveolar lavage fluid (BALF)” value is reported as “significantly reduced”. For the same compound, in the assay with Female CD-1 mice (setting [1]), the fibrosis result is reported as “decreased”, the inflammatory cell influx result is given as “decreased” and the mouse body weight entry is “maintained”. Moreover, in the assay on Female CD-1 mice (setting [2]), the lung fibrosis entry is recorded as “decreased” and the pulmonary resistance entry is reported as “decreased”. In the assay with Female C57BL/6 mice (30 mg/kg, po, qd), the “effect on collagen deposition compared to pirfenidone” value was “same effect on collagen deposition as pirfenidone”. Further, the “collagen deposition in the liver as compared to the untreated group” value in the assay with Female C57BL/6 mice is “significantly reduced”. For the same compound, the IC50 at human LPA1 is less than 0.3 µM.

On to `Cc1noc(-c2ccc(-c3ccc(CC(=O)O)cc3)cc2)c1NC(=O)O[C@H](C)c1ccccc1` [Compound 1-115], for which the “lactate in the BALF” value in the assay on Female CD-1 mice (acute setting (3-day)) is on record as “reduced”. Also, in the assay with Female CD-1 mice (acute setting (3 day)), the “tissue inhibitor of metalloproteinase-1 (TIMP-1; pro-fibrotic marker) concentration in BALF” value was “reduced” and the “total protein in broncheoalveolar lavage fluid (BALF)” value is recorded as “reduced”. Also, in the assay with Female CD-1 mice (setting [3]), the fibrosis result is recorded as “decreased” and the inflammatory cell influx entry is on record as “decreased”. For the same compound, in the assay on Female C57BL/6 mice, the “collagen deposition in the liver as compared to the untreated group” value is “significantly reduced”. For the same compound, the IC50 on human LPA1 is less than 0.3 µM.

One may read the IC50 as the concentration that gives 50% inhibition.
